These results are taken from ChEMBL document CHEMBL3351875, “Synthesis of Deuterated Benzopyran Derivatives as Selective COX-2 Inhibitors with Improved Pharmacokinetic Properties” (ACS Med Chem Lett, 2014).

Data set [1] concerns the target Prostaglandin G/H synthase 1 (Homo sapiens, UniProt P23219). As to the kind of experiment: Inhibition of human recombinant COX1 pre-incubated for 15 mins before fluorometric substrate addition by fluorescence based assay.
Data set [2] has as its system Rattus norvegicus. As to the kind of experiment: Antinociceptive activity in orally dosed Sprague-Dawley rat model of carrageenan-induced foot paw hyperalgesia assessed as paw withdrawal latency. The class given is functional, organism-based.
In data set [3] the test system is Rattus norvegicus. As to the kind of experiment: AUC (0 to infinity) in Sprague-Dawley rat at 1 mg/kg, iv measured during 1 to 24 hrs by LC-MS method. The data set is classed as ADME, organism-based, Plasma. Details: time infinity, dose 1 mg/kg, route intravenous. The note with it: in vivo.
Data set [4] deals with Rattus norvegicus. As to the kind of experiment: Antiinflammatory activity in orally dosed Sprague-Dawley rat model of carrageenan-induced air pouch inflammation assessed as reduction in PGE2 level by ELISA method. The class given is functional, organism-based. Background: An ELISA detects its analyte on a solid surface through an enzyme-linked reagent.
Data set [5] concerns Rattus norvegicus. As to the kind of experiment: Antiinflammatory activity in orally dosed Sprague-Dawley rat model of carrageenan-induced foot paw edema assessed as reduction in edema by plethysmometry. The data set is classed as functional, organism-based. (The carrageenan paw model is a standard test of acute inflammation.)
Data set [6] relates to Rattus norvegicus. As to the kind of experiment: Oral bioavailability in Sprague-Dawley rat at 2.5 mg/kg measured during 1 to 24 hrs by LC-MS method. The class given is ADME, organism-based. The following applies: in vivo.
A short description of data set [7]: Cmax in Sprague-Dawley rat at 1 mg/kg, iv measured during 1 to 24 hrs by LC-MS method. The data set is classed as ADME, organism-based. Further details: dose 1 mg/kg, route intravenous. The following applies: in vivo.
A short description of data set [8]: Apparent oral clearance in Sprague-Dawley rat at 1 mg/kg, iv measured during 1 to 24 hrs by LC-MS method. The class given is ADME, organism-based. The following applies: in vivo. Further details: dose 1 mg/kg, route oral.
The subject of data set [9] is Rattus norvegicus. As to the kind of experiment: Half life in Sprague-Dawley rat at 1 mg/kg, iv measured during 1 to 24 hrs by LC-MS method. The data set is classed as ADME, organism-based. The following applies: in vivo. Further details: dose 1 mg/kg, route intravenous.
Data set [10] relates to Rattus norvegicus. As to the kind of experiment: AUC (0 to infinity) in Sprague-Dawley rat at 2.5 mg/kg, po measured during 1 to 24 hrs by LC-MS method. The data set is classed as ADME, organism-based, Plasma. Further details: dose 2.5 mg/kg, route oral, time infinity. The note with it: in vivo.
Data set [11] in a line: Volume of distribution in Sprague-Dawley rat at 1 mg/kg, iv measured during 1 to 24 hrs by LC-MS method. The data set is classed as ADME, organism-based. Further details: dose 1 mg/kg, route intravenous. The following applies: in vivo.
Data set [12] deals with Rattus norvegicus. As to the kind of experiment: Apparent oral clearance in Sprague-Dawley rat at 2.5 mg/kg, po measured during 1 to 24 hrs by LC-MS method. The class given is ADME, organism-based. Further details: dose 2.5 mg/kg, route oral. The note with it: in vivo.
In data set [13] the target is T1, Prostaglandin G/H synthase 2 (Homo sapiens, UniProt P35354).
T1 sequence (P35354 whole entry): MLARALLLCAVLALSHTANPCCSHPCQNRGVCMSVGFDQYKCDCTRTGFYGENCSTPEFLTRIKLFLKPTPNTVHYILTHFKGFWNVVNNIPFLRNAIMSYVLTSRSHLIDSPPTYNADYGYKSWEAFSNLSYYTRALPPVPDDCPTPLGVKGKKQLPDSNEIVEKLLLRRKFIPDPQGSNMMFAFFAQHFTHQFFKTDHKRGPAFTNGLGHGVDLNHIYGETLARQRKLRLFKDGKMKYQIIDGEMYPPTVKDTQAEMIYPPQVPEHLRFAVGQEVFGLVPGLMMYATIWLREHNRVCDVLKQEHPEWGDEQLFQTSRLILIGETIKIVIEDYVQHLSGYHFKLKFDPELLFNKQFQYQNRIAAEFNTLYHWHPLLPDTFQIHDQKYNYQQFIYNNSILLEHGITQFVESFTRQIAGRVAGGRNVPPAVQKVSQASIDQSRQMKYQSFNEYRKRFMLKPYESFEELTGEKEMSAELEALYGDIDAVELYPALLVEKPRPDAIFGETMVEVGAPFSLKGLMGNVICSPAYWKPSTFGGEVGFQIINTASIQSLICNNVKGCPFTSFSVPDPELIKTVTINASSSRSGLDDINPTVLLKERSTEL
As to the kind of experiment: Inhibition of human recombinant COX2 pre-incubated for 15 mins before fluorometric substrate addition by fluorescence based assay.

Data set [14] can be described thus: (§1) AUC (0 to infinity) in Sprague-Dawley rat at 10 mg/kg, po measured during 1 to 24 hrs by LC-MS method. The class given is ADME, organism-based, Plasma. Further details: time infinity, dose 10 mg/kg, route oral. The note with it: Sprague-Dawley, plasma.
The nature of data set [15]: Apparent oral clearance in Sprague-Dawley rat at 5 mg/kg, iv measured during 1 to 24 hrs by LC-MS method. The class given is ADME, organism-based. Details: dose 5 mg/kg, route oral. The following applies: in vivo.
Data set [16] can be described thus: (§2) AUC (0 to infinity) in Sprague-Dawley rat at 5 mg/kg, iv measured during 1 to 24 hrs by LC-MS method. The class given is ADME, organism-based, Plasma. Details: time infinity, dose 5 mg/kg, route intravenous. The following applies: Sprague-Dawley, plasma.
Data set [17] is described as follows: Cmax in Sprague-Dawley rat at 5 mg/kg, iv measured during 1 to 24 hrs by LC-MS method. The data set is classed as ADME, organism-based. Details: dose 5 mg/kg, route intravenous. The note with it: in vivo.
The test system of data set [18] is Rattus norvegicus. As to the kind of experiment: Half life in Sprague-Dawley rat at 5 mg/kg, iv measured during 1 to 24 hrs by LC-MS method. The class given is ADME, organism-based. Further details: dose 5 mg/kg, route intravenous. The note with it: in vivo.
Data set [19] is described as follows: Oral bioavailability in Sprague-Dawley rat at 10 mg/kg measured during 1 to 24 hrs by LC-MS method. The class given is ADME, organism-based. The note with it: Sprague-Dawley, in vivo.
Data set [20] in a line: Apparent oral clearance in Sprague-Dawley rat at 10 mg/kg, po measured during 1 to 24 hrs by LC-MS method. The data set is classed as ADME, organism-based. Details: dose 10 mg/kg, route oral. The following applies: Sprague-Dawley, in vivo.
A short description of data set [21]: Volume of distribution in Sprague-Dawley rat at 5 mg/kg, iv measured during 1 to 24 hrs by LC-MS method. The data set is classed as ADME, organism-based. Further details: dose 5 mg/kg, route intravenous. The note with it: in vivo.
Data set [22] relates to Rattus norvegicus. As to the kind of experiment: Volume of distribution in Sprague-Dawley rat at 10 mg/kg, po measured during 1 to 24 hrs by LC-MS method. The data set is classed as ADME, organism-based. Details: dose 10 mg/kg, route oral. The following applies: in vivo.
Data set [23] has as its system Rattus norvegicus. As to the kind of experiment: Tmax in Sprague-Dawley rat at 10 mg/kg, po measured during 1 to 24 hrs by LC-MS method. The class given is ADME, organism-based. The following applies: in vivo. Details: dose 10 mg/kg, route oral.
Data set [24] concerns Rattus norvegicus. As to the kind of experiment: Half life in Sprague-Dawley rat at 10 mg/kg, po measured during 1 to 24 hrs by LC-MS method. The data set is classed as ADME, organism-based. Details: dose 10 mg/kg, route oral. The following applies: in vivo.
Data set [25] in a line: Cmax in Sprague-Dawley rat at 10 mg/kg, po measured during 1 to 24 hrs by LC-MS method. The class given is ADME, organism-based. Further details: dose 10 mg/kg, route oral. The note with it: in vivo.
The subject of data set [26] is Rattus norvegicus. The data set is described as §1. Details: time infinity, dose 10 mg/kg, route oral. The data set is classed as ADME, organism-based, Plasma. The following applies: in vivo.
In data set [27] the test system is Rattus norvegicus. The data set is described as §2. The data set is classed as ADME, organism-based, Plasma. Details: time infinity, dose 5 mg/kg, route intravenous. The following applies: in vivo.

Chain of Prostaglandin G/H synthase 1 (P23219 whole entry): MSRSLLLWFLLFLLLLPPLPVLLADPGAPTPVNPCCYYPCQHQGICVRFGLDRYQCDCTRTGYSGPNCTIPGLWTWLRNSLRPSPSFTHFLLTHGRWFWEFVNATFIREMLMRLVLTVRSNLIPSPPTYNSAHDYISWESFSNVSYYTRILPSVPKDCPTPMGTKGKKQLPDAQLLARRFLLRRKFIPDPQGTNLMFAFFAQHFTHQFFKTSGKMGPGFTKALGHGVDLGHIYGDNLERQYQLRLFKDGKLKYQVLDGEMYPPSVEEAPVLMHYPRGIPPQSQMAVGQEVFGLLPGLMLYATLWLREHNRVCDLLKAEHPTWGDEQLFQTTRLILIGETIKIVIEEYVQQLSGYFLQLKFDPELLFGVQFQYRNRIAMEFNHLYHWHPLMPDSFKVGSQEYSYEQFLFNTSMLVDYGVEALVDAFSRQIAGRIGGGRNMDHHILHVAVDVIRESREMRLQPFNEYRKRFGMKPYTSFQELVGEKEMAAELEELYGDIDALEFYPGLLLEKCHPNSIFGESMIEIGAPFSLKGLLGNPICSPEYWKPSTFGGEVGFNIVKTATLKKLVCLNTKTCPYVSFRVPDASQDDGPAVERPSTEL

For orientation: IC50 means the concentration that inhibits the measured activity by half. For the compound `[2H]C([2H])([2H])c1c(Br)c2c(c(C([2H])([2H])[2H])c1Br)C=C(C(=O)O)C(C(F)(F)F)O2` (centres undefined), in [1], the IC50 was above 100000 nM.

In general, AUC refers to the area under the concentration-time curve, a measure of exposure. Read a low AUC as low exposure. Usually Cmax stands for the highest concentration seen after dosing. The term CL/F denotes clearance divided by bioavailability, as obtained after extravascular dosing. `[2H]C([2H])([2H])c1cc(Cl)cc2c1OC(C(F)(F)F)C(C(=O)O)=C2` (centres undefined): the results for the EC50 in data set [2], in data set [4] and in data set [5] were 3.33 mg/kg, 0.45 mg/kg and 6.48 mg/kg, respectively. Moreover, the AUC was 14043.753 ng·h/mL in [3] and 38900 µg/L.hr in data set [10]. The compound further showed a F in [6] of 110.7%. In addition, the peak level in [7] (Cmax) was 9070 ng/mL. In addition, the values for the CL/F in [8] and in [12] were 1.2 mL/min/kg and 1.1 mL/min/kg, respectively. This compound also yielded a t1/2 in data set [9] of 3.909 h. Moreover, the Vd in data set [11] was 0.404 L/kg.

With `Cc1c(Br)c(C)c2c(c1Br)OC(C(F)(F)F)C(C(=O)O)=C2` (centres undefined), the IC50 in [13] was 69 nM; in [1], above 100000 nM.

What is called AUC(0-inf) is the area under the concentration-time curve extrapolated to infinity. Low values mean less exposure, high ones more exposure. As to `[2H]C([2H])([2H])c1cc2c(c(C([2H])([2H])[2H])c1Br)C=C(C(=O)O)C(C(F)(F)F)O2` (centres undefined), the EC50 in [2] came to 3.82 mg/kg; in data set [4], 0.57 mg/kg; in data set [5], 2.26 mg/kg. Besides, the AUC(0-inf) is 84800 ng·h/mL in [14] and 37900 ng·h/mL in [16]. The values for the CL/F in [15] and in data set [20] were 2.25 mL/min/kg and 2.08 mL/min/kg, respectively. For the same compound, in data set [13], the IC50 came to 43 nM. Also, the Cmax in data set [17] was found to be 26200 ng/mL. The same compound registered a t1/2 in data set [18] of 2.733 h. Besides, the bioavailability in data set [19] came out at 112%. In addition, the results for the Vd in data set [21] and in [22] were 0.529 L/kg and 0.57 L/kg, respectively.

Regarding `[2H]C([2H])([2H])c1cc2c(c(C([2H])([2H])[2H])c1Cl)C=C(C(=O)O)[C@@H](C(F)(F)F)O2`, the IC50 in data set [1] is above 100000 nM.

For orientation: Tmax means the time at which the peak concentration occurs. Consider `CC(C)(C)c1cc2c(cc1Cl)C=C(C(=O)O)[C@@H](C(F)(F)F)O2` [TIGEMOCOXIB], for which the AUC(0-inf) in data set [14] was 42200 ng·h/mL; in data set [16] it was 31300 ng·h/mL. Also, the Tmax in data set [23] was found to be 0.75 h. Also, the CL/F in data set [15] is 2.67 mL/min/kg; in data set [20], 4.03 mL/min/kg. Further, the results for the Cmax in data set [17] and in data set [25] were 37200 ng/mL and 8150 ng/mL, respectively. Also, the figures for the t1/2 in [18] and in data set [24] were 5.78 h and 6.68 h, respectively. The bioavailability in [19] came out at 67.5%. Also, the Vd was 1.35 L/kg in [21] and 2.314 L/kg in data set [22].

In the case of `[2H]C([2H])([2H])c1cc2c(c(C([2H])([2H])[2H])c1Cl)C=C(C(=O)O)C(C(F)(F)F)O2` (centres undefined), the EC50 turned out to be 2.77 mg/kg in data set [2], 0.47 mg/kg in data set [4] and 5.18 mg/kg in data set [5]. In addition, the AUC in [26] turned out to be 118331.438 ng·h/mL; in [27], 63759.714 ng·h/mL. The CL/F in data set [15] is 1.32 mL/min/kg; in [20] it was 1.43 mL/min/kg. Moreover, the concentration in [17] peaked (Cmax) at 38800 ng/mL. For the same compound, in [18], the t1/2 came out at 2.525 h. Also, the bioavailability in data set [19] came to 92.8%. The Vd came out at 0.287 L/kg in data set [21] and 0.26 L/kg in [22].

On to `[2H]C([2H])([2H])c1cc2c(c(C([2H])([2H])[2H])c1Br)C=C(C(=O)O)[C@@H](C(F)(F)F)O2`, for which the IC50 is 9 nM in [13] and above 100000 nM in data set [1].
